Results published in patent publication EP3635128B1, “CONTINUOUS SPECTROMETRIC ASSAYS FOR MEASURING MEPRIN ACTIVITY USING AN AUXILIARY ENZYME” (Vivoryon Therapeutics AG, priority 2017, dated 2018).
Read-outs that look alike come from different tables or passages of the source. Each block holds one compound with its values, some of them ahead of it. Peptide text beside a SMILES is read from it. * marks the point of attachment. pNA = O=[N+]([O-])c1ccc(N*)cc1; AMC = Cc1cc(=O)oc2cc(N*)ccc12

Assays:
[1] = target: T1, h-meprin β (Homo sapiens, UniProt Q16820); test: coupled continuous fluorometric assay with auxiliary enzyme PtP and fluorogenic AMC substrates; type: biochemical; design: His6 (N); made in house; host or cells: Pichia pastoris strain X33
T1 sequence (Q16820 62-701): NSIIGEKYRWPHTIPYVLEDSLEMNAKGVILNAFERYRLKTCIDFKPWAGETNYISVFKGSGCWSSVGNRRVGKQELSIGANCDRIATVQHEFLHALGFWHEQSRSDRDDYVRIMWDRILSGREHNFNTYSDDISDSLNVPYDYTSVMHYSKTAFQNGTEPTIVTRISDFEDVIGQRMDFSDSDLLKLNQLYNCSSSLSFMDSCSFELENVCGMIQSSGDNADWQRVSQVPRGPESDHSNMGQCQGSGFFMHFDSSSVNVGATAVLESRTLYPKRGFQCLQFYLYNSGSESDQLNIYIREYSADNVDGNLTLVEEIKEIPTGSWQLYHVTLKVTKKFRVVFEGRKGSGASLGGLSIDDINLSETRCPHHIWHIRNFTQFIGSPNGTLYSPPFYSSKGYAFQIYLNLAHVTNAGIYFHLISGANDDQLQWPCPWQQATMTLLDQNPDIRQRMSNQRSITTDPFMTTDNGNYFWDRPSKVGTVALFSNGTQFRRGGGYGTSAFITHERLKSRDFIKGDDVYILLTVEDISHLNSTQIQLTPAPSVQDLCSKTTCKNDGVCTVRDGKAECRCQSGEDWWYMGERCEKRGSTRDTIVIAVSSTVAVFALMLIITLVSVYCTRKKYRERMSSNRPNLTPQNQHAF
Description: (§1) The enzyme assay consisted of prolyl tripeptidyl aminopeptidase from Porphyromonas gingivalis, an appropriate amount of human h-meprin β or α and the chromogenic substrate KKGYVADAP-pNA (stock solution in assay buffer) in a final volume of 0.25 ml h-meprin β assay buffer (20 mM Tris-HCI; pH 7.5) or h-meprin α assay buffer (20 mM HEPES, 10 mM CaCl2, 0,05% Brij; pH 7.4). After 10 minutes preincubation, the reaction was started by addition of the substrate. Subsequently, absorption was measured at 405 nm for 20 minutes with the Tecan Genios Pro Reader (Tecan) at 30°C. PtP activity was determined using an absorption coefficient of 5717 mol/l, which was obtained from a standard curve of p-nitroaniline under assay conditions. A molecular mass of 79500 Da was used to calculate the Kcat value. Prolyl tripeptidyl aminopeptidase activity was measured utilizing the substrate DAP-pNA. In order to maintain conditions identical to those used in the h-meprin β assay, samples (250 µl) contained a final concentration of 0.2% (v/v) dimethyl sulfoxide. One unit is defined as the amount of enzyme that hydrolyses 1 µmol DAP-pNA per minute under the conditions described. The specific activity of the enzyme preparation was 7 units/mg.
Conversion of the fluorogenic substrate KKGYVADAP-AMC by PtP and h-meprin β was analyzed according to assay conditions as described for the chromogenic substrate. Fluorescence was measured at excitation/emission wavelengths of 380/460 nm. The fluorescence coefficient of 8.5×10^8 mol/l for DAP-AMC was calculated from a standard curve of 7-Amino-4-methylcoumarin under assay conditions.

[2] = target: T1, h-meprin β; test: coupled continuous spectrophotometric assay with auxiliary enzyme PtP and chromogenic pNA substrates; type: biochemical; design: His6 (N); made in house; host or cells: Pichia pastoris strain X33; settings: for Kcat / Kcat/KM (s^-1M^-1) / Km: hydrolysis of pNA substrate by meprin β, means ± S.D.
Description: as §1
(§2) In the first reaction of the substrate conversion, KKGYVADAP-pNA is cleaved to DAP-pNA by meprin α or β. The second reaction, the release of p-nitroaniline by PtP can be measured in this assay and correlates to the amount of released DAP-pNA by meprin. Based on these terms, a rate equation for irreversible coupled enzyme assays was first described by McClure, giving the opportunity of calculating the required amount of an auxiliary enzyme to minimize the time to reach steady-state conditions (McClure, W. R., Biochemistry. 1969, 8 (7), 2782-2786; Schilling, S., Hoffmann, T., Wermann, M., Heiser, U., Wasternack, C., Demuth, H.-U., Analytical biochemistry. 2002, 303 (1), 49-56, 10.1006/abio.2001.5560). The amount of auxiliary enzyme was calculated as follows (Eq. 1): V2 = −Km2 × ln(1−[DAP−pNA]t/[DAP−pNA]ss)/t. [formula]

[3] = target: T1, h-meprin β; test: as above; type: biochemical; design: His6 (N, cleaved yes); made in house; host or cells: Pichia pastoris X33 (pPICZαC), protein harvested from the fermenter supernatant
Description: as §1, §2

[4] = target: T2, h-meprin α (Homo sapiens, UniProt Q16819); test: coupled continuous spectrophotometric assay with auxiliary enzyme PtP and chromogenic substrate KKGYVADAP-pNA; type: biochemical
T2 construct: His-tag (N); made in house; host or cells: Drosophila melanogaster S2 cells, stably transfected (pMT/BiP/V5-His C), protein harvested from the culture medium
T2 sequence (Q16819 66-746): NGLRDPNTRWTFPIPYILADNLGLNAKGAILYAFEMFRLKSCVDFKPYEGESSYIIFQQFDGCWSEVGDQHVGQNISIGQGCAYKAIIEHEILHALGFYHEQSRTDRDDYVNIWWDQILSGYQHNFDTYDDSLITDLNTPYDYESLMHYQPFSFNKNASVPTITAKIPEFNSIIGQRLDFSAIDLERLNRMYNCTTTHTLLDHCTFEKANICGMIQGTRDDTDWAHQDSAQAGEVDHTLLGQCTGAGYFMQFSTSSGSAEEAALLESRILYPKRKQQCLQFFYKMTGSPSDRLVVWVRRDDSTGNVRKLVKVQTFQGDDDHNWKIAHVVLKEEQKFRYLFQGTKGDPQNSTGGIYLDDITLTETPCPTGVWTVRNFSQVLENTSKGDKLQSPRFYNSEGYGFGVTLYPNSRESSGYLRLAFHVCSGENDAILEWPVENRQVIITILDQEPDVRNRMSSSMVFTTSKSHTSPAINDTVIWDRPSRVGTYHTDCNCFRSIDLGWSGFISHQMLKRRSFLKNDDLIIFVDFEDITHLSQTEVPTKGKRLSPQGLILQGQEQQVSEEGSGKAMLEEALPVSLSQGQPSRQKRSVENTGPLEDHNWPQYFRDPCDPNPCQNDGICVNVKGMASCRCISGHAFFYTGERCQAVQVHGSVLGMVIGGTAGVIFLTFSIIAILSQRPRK
Description: as §1, §2

[5] = target: T2, h-meprin α; test: non-coupled assay with internally quenched fluorogenic substrate; type: biochemical; settings: fluorogenic substrate Abz-YVADAPK(Dpn)G-OH; unpublished data
[6] = target: T1, h-meprin β; design: His6 (N, cleaved yes); made in house; host or cells: Pichia pastoris X33 (pPICZαC), protein harvested from the fermenter supernatant; settings: fluorogenic substrate Abz-YVAEAPK(Dpn)G-OH; from Schlenzig et al. 2015; cited from earlier work
[7] = target: T1, h-meprin β; design: His6 (N); made in house; host or cells: Pichia pastoris strain X33; settings: cited from earlier work; for substrate inhibition at concentrations above: internally quenched substrate, meprin β
[8] = hydrolysis of AMC substrate by meprin β, means ± S.D.
[9] = Dixon plot, four substrate concentrations of KKGYVADAP-pNA
[10] = chromogenic substrate KKGYVADAP-pNA, coupled continuous assay, means ± S.D.
[11] = substrate KKGYVADAP-pNA, six inhibitor and four substrate concentrations
[12] = hydrolysis of internally quenched substrate by meprin β, from Schlenzig et al. 2015

Compound: CC(=O)N[C@@H](CCCCN)C(=O)N[C@@H](CCCCN)C(=O)NCC(=O)N[C@@H](Cc1ccc(O)cc1)C(=O)N[C@H](C(=O)N[C@@H](C)C(=O)N[C@@H](CC(=O)O)C(=O)N[C@@H](C)C(=O)N1CCC[C@H]1C(=O)Nc1ccc2c(C)cc(=O)oc2c1)C(C)C [Ac-KKGYVADAP-AMC] (Ac-KKGYVADAP-{AMC})
Kcat [1, 8]: 6.3 ± 1 s⁻¹ | Kcat/KM (s^-1M^-1) [1, 8]: 10.0×10^4 ± 1.4×10^4 s^-1M^-1 | Km [1, 8]: 64 µM

Compound: CC(=O)N[C@@H](CCCCN)C(=O)N[C@@H](CCCCN)C(=O)NCC(=O)N[C@@H](Cc1ccc(O)cc1)C(=O)N[C@H](C(=O)N[C@@H](C)C(=O)N[C@@H](CC(=O)O)C(=O)N[C@@H](C)C(=O)N1CCC[C@H]1C(=O)Nc1ccc([N+](=O)[O-])cc1)C(C)C [Ac-KKGYVADAP-pNA] (Ac-KKGYVADAP-pNA)
Kcat [2]: 20.0 ± 3.5 s⁻¹ | Kcat/KM (s^-1M^-1) [2]: 6.4x10^4 ± 2.5x10^4 s^-1M^-1 | Km [2]: 360 µM

Compound: CC(=O)N[C@@H](CCCNC(=N)N)C(=O)NCC(=O)N[C@@H](CCCNC(=N)N)C(=O)NCC(=O)N[C@@H](Cc1ccc(O)cc1)C(=O)N[C@H](C(=O)N[C@@H](C)C(=O)N[C@@H](CC(=O)O)C(=O)N[C@@H](C)C(=O)N1CCC[C@H]1C(=O)Nc1ccc([N+](=O)[O-])cc1)C(C)C [Ac-RGRGYVADAP-pNA] (Ac-RGRGYVADAP-pNA)
Kcat [2]: 19.9 ± 10.2 s⁻¹ | Kcat/KM (s^-1M^-1) [2]: 15.0×10^4±1.1×10^5 s^-1M^-1 | Km [2]: 140 µM

Compound: Cc1cc(=O)oc2cc(NC(=O)[C@@H]3CCCN3C(=O)[C@H](C)NC(=O)[C@H](CC(=O)O)NC(=O)[C@H](C)NC(=O)[C@@H](NC(=O)[C@H](Cc3ccc(O)cc3)NC(=O)CNC(=O)[C@H](CCCCN)NC(=O)[C@@H](N)CCCCN)C(C)C)ccc12 [KKGYVADAP-AMC, H-Lys-Lys-Gly-Tyr-Val-Ala-Asp-Ala-Pro-AMC] (H-KKGYVADAP-{AMC})
substrate inhibition ([1]; at concentrations up to 2 mM): no inhibitory effect | Kcat (s^-1) [1, 8]: 4.3 ± 6.1×10^-1 s^-1 | Kcat/KM (s^-1M^-1) [1, 8]: 6.0×10^4 ± 1.6×10^4 s^-1M^-1 | Km [1, 8]: 74 µM

Compound: CC(C)[C@H](NC(=O)[C@H](Cc1ccc(O)cc1)NC(=O)CNC(=O)[C@H](CCCCN)NC(=O)[C@@H](N)CCCCN)C(=O)N[C@@H](C)C(=O)N[C@@H](CC(=O)O)C(=O)N[C@@H](C)C(=O)N1CCC[C@H]1C(=O)Nc1ccc([N+](=O)[O-])cc1 [KKGYVADAP-pNA, H-Lys-Lys-Gly-Tyr-Val-Ala-Asp-Ala-Pro-pNA] (H-KKGYVADAP-pNA)
substrate inhibition ([2]; at concentrations up to 2 mM): no inhibitory effect | Kcat [2]: 20 ± 4.1 s⁻¹ | Kcat/KM (s^-1M^-1) [2]: 11.0×10^4 ± 4.8×10^3 s^-1M^-1 | Km [2]: 180 µM

mode of inhibition [3, 9]: competitive | IC50 [3, 10]: 0.76 µM | Ki [3, 11]: 0.27 µM | mode of inhibition [4, 9]: competitive | IC50 [4, 10]: 0.012 µM | Ki [4, 11]: 0.0032 µM | IC50 [5]: 0.0096 µM
Compound: CCCCC[C@H](CC(=O)NO)C(=O)N[C@H](C(=O)N1CCC[C@H]1CO)C(C)C [actinonin]
IC50 [6]: 0.44 µM

Compound: Abz-MGWMDEIDK(Dnp)SG-OH [OCK+]
substrate inhibition at concentrations above [7]: above 40 µM

Compound: Abz-YVAEAPK(Dpn)G-OH
Kcat [7, 12]: 35.0 ± 2.5 s⁻¹ | Kcat/KM (s^-1M^-1) [7, 12]: 129.0×10^4 ± 3.0×10^4 s^-1M^-1 | Km [7, 12]: 27 µM | substrate inhibition at concentrations above [7]: above 100 µM
